Assay results published in patent US20220370416A1, “COMPOUNDS AND METHODS FOR TARGETED DEGRADATION OF KRAS” (Arvinas Operations, Inc., priority 2020, published 2022).

How the values were obtained:
[1] = target: T1, HiBit-KRAS^G12C (Homo sapiens, UniProt P01116, G12C); test: HiBit degradation assay in SW1573 HiBit-KRas^G12C cells; format: cell-based; parameters: expressed in transfected cells; host or cells: SW1573 (clone E6), modified pcDNA3.1 vector, TK promoter; conditions: 24 hours
Summary of the method: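 HiBit-KRAS G12C degradation was measured after a 24 h compound exposure (titrated 10 μM–20 nM) in engineered SW1573 cells. Lytic HiBit luminescence, expressed relative to DMSO controls, yielded DC50 and Dmax from 4-parameter fits. Concentrations causing ≥50% loss in alamar blue viability were omitted as cytotoxic.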

[2] = target: T1, HiBit-KRAS^G12C; test: HiBit degradation assay in MiaPaCa-2 HiBit-KRas^G12C cells; format: cell-based; conditions: 24 hours; for DC50: read-out: KRas^G12C-HiBiT (MiaPaCa; 0.5% DMSO) IC50
Summary of the method: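 DC50 and Dmax come from 4-parameter fits of DMSO-normalized HiBit luminescence after 24 hours' exposure at 37° C to 10 μM–20 nM compound in 0.1% or 0.5% DMSO. Cells: MiaPaCa-2 carrying one endogenously HiBit-tagged KRAS^G12C allele; concentrations causing ≥50% […] viability loss (alamar blue) excluded.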

[3] = SW1573, SW1573 HiBit-KRas^G12C, 0.5% DMSO, read-out: KRas^G12C-HiBiT (SW1573; 0.5% DMSO) Dmax**
[4] = read-out: KRas^G12C-HiBiT (SW1573; 0.5% DMSO) IC50***, SW1573 HiBit-KRas^G12C, 0.5% DMSO
[5] = MIA PaCa-2, MiaPaCa-2 HiBit-KRas^G12C cells, 0.5% DMSO, maximum degradation, read-out: KRas^G12C-HiBiT (MiaPaCa; 0.5% DMSO) DMax
[6] = MiaPaCa-2 HiBit-KRas^G12C cells, 0.5% DMSO

T1 sequence (P01116 1-186 isoform P01116-2 G12C limits assumed): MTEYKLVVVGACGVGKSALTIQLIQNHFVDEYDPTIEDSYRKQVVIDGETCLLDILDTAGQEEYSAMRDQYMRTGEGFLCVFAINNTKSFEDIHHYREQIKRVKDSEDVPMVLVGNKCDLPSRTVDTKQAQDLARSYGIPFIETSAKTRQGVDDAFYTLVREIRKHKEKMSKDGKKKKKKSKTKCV

Row | Compound | Dmax [1, 3] [%] | DC50 [1, 4] [µM] | Dmax [2, 5] [%] | DC50 [2, 6] [µM] | other results
1 | C=CC(=O)N1CCN(c2nc(OCCN3CCC(C)(COCC(=O)N[C@H](C(=O)N4C[C@H](O)C[C@H]4C(=O)N[C@@H](C)c4ccc(-c5scnc5C)cc4)C(C)(C)C)CC3)nc3c(F)c(-c4cc(O)cc5ccccc45)c(Cl)cc23)C[C@@H]1CC#N [Compound 149, (2S,4R)-1-[(2S)-2-[2-({1-[2-({6-chloro-4-[(3S)-3-(cyanomethyl)-4-(prop-2-enoyl)piperazin-1-yl]-8-fluoro-7-(3-hydroxynaphthalen-1-yl)quinazolin-2-yl}oxy)ethyl]-4-methylpiperidin-4-yl}methoxy)acetamido]-3,3-dimethylbutanoyl]-4-hydroxy-N-[(1S)-1-[4-(4-methyl-1,3-thiazol-5-yl)phenyl]ethyl]pyrrolidine-2-carboxamide] | > 70 | 0.1 to 1 | > 70 | 0.1 to 1 | 
2 | C=C(F)C(=O)N1CCN(c2nc(OCCN3CCC(C)(COc4cc([C@@H](C(=O)N5C[C@H](O)C[C@H]5C(=O)N[C@@H](C)c5ccc(-c6scnc6C)cc5)C(C)C)on4)CC3)nc3c(F)c(-c4cc(O)cc5ccccc45)c(Cl)cc23)C[C@@H]1CC#N (atropisomer, axis not shown) [Compound 126, (2S,4R)-1-[(2S)-2-[3-({1-[2-({6-chloro-4-[(3S)-3-(cyanomethyl)-4-(2-fluoroprop-2-enoyl)piperazin-1-yl]-8-fluoro-7-(3-hydroxynaphthalen-1-yl)quinazolin-2-yl}oxy)ethyl]-4-methylpiperidin-4-yl}methoxy)-1,2-oxazol-5-yl]-3-methylbutanoyl]-4-hydroxy-N-[(1S)-1-[4-(4-methyl-1,3-thiazol-5-yl)phenyl]ethyl]pyrrolidine-2-carboxamide] |  | > 1 |  | > 1 | 
3 | C=C(F)C(=O)N1CCN(c2nc(OCCN3CCC(OCCOCC(=O)N[C@H](C(=O)N4C[C@H](O)C[C@H]4C(=O)N[C@@H](C)c4ccc(-c5scnc5C)cc4)C(C)(C)C)CC3)nc3c(F)c(-c4cc(O)cc5ccccc45)c(Cl)cc23)C[C@@H]1CC#N [Compound 170, (2S,4R)-1-[(2S)-2-{2-[2-({1-[2-({6-chloro-4-[(3S)-3-(cyanomethyl)-4-(2-fluoroprop-2-enoyl)piperazin-1-yl]-8-fluoro-7-(3-hydroxynaphthalen-1-yl)quinazolin-2-yl}oxy)ethyl]piperidin-4-yl}oxy)ethoxy]acetamido}-3,3-dimethylbutanoyl]-4-hydroxy-N-[(1S)-1-[4-(4-methyl-1,3-thiazol-5-yl)phenyl]ethyl]pyrrolidine-2-carboxamide] | > 70 | 0.1 to 1 | 35 to 70 | 0.1 to 1 | 
4 | C=CC(=O)N1CCN(c2nc(O[C@H](C)CN3CCC(CCC(=O)N[C@H](C(=O)N4C[C@H](O)C[C@H]4C(=O)N[C@@H](C)c4ccc(-c5scnc5C)cc4)C(C)(C)C)CC3)nc3c(F)c(-c4cc(O)cc5ccccc45)c(Cl)cc23)CC1 [Compound 37, (2S,4R)-1-[(2S)-2-(3-{1-[(2R)-2-{[6-chloro-8-fluoro-7-(3-hydroxynaphthalen-1-yl)-4-[4-(prop-2-enoyl)piperazin-1-yl]quinazolin-2-yl]oxy}propyl]piperidin-4-yl}propanamido)-3,3-dimethylbutanoyl]-4-hydroxy-N-[(1S)-1-[4-(4-methyl-1,3-thiazol-5-yl)phenyl]ethyl]pyrrolidine-2-carboxamide] |  |  |  |  | Dmax ([1]; SW1573, SW1573 HiBit-KRas^G12C, 0.1% DMSO, read-out: KRas^G12C-HiBit (SW1573; 0.1% DMSO) Dmax**): 35 to 70%; DC50 ([1]; SW1573 HiBit-KRas^G12C, 0.1% DMSO, read-out: KRas^G12C-HIBit (SW1573; 0.1% DMSO) DC50*): 0.1 to 1 µM; Dmax ([2]; MIA PaCa-2, MiaPaCa-2 HiBit-KRas^G12C cells, 0.1% DMSO, maximum degradation, read-out: KRas^G12C-HiBiT (MiaPaCa; 0.1% DMSO) DMax): < 35%
5 | C=CC(=O)N1CCN(c2nc(OCCN3CCC(F)(CN(C)CC(=O)N[C@H](C(=O)N4C[C@H](O)C[C@H]4C(=O)N[C@@H](C)c4ccc(-c5scnc5C)cc4)C(C)(C)C)CC3)nc3c(F)c(-c4cc(O)cc5ccccc45)c(Cl)cc23)C[C@@H]1CC#N [Compound 120, (2S,4R)-1-[(2S)-2-{2-[({1-[2-({6-chloro-4-[(3S)-3-(cyanomethyl)-4-(prop-2-enoyl)piperazin-1-yl]-8-fluoro-7-(3-hydroxynaphthalen-1-yl)quinazolin-2-yl}oxy)ethyl]-4-fluoropiperidin-4-yl}methyl)(methyl)amino]acetamido}-3,3-dimethylbutanoyl]-4-hydroxy-N-[(1S)-1-[4-(4-methyl-1,3-thiazol-5-yl)phenyl]ethyl]pyrrolidine-2-carboxamide] |  | 0.1 to 1 |  | 0.1 to 1 | Dmax ([1]; SW1573, read-out: KRas^G12C-HiBiT (SW1573; 0.5% DMSO) Dmax**, SW1573 HiBit-KRas^G12C, 0.5% DMSO): 35 to 70%; Dmax ([2]; MIA PaCa-2, read-out: KRas^G12C-HiBiT (MiaPaCa; 0.5% DMSO) DMax, MiaPaCa-2 HiBit-KRas^G12C cells, 0.5% DMSO, maximum degradation): 35 to 70%
6 | C=CC(=O)N1CCN(c2nc(O[C@@H]3CCC[C@H]3N3CCC(COCC(=O)N[C@H](C(=O)N4C[C@H](O)C[C@H]4C(=O)N[C@@H](C)c4ccc(-c5scnc5C)cc4)C(C)(C)C)CC3)nc3c(F)c(-c4cc(O)cc5ccccc45)c(Cl)cc23)C[C@@H]1CC#N [Compound 130, (2S,4R)-1-[(2S)-2-[2-({1-[(1R,2R)-2-({6-chloro-4-[(3S)-3-(cyanomethyl)-4-(prop-2-enoyl)piperazin-1-yl]-8-fluoro-7-(3-hydroxynaphthalen-1-yl)quinazolin-2-yl}oxy)cyclopentyl]piperidin-4-yl}methoxy)acetamido]-3,3-dimethylbutanoyl]-4-hydroxy-N-[(1S)-1-[4-(4-methyl-1,3-thiazol-5-yl)phenyl]ethyl]pyrrolidine-2-carboxamide] | > 70 | 0.1 to 1 | 35 to 70 | 0.1 to 1 | 

Now from value to compound, other results behind:

Row | Dmax [1, 3] [%] | DC50 [1, 4] [µM] | Dmax [2, 5] [%] | DC50 [2, 6] [µM] | Compound | other results
7 | > 70 | < 0.1 | > 70 | 0.1 to 1 | C=CC(=O)N1CCN(c2nc(OCCN3CCC(F)(COc4cc([C@H](C(=O)N5C[C@H](O)C[C@H]5C(=O)N[C@@H](C)c5ccc(-c6scnc6C)cc5)C(C)C)on4)CC3)nc3c(F)c(-c4cc(O)cc5ccccc45)c(Cl)cc23)C[C@@H]1CC#N [Compound 133, (2S,4R)-1-[(2R)-2-[3-({1-[2-({6-chloro-4-[(3S)-3-(cyanomethyl)-4-(prop-2-enoyl)piperazin-1-yl]-8-fluoro-7-(3-hydroxynaphthalen-1-yl)quinazolin-2-yl}oxy)ethyl]-4-fluoropiperidin-4-yl}methoxy)-1,2-oxazol-5-yl]-3-methylbutanoyl]-4-hydroxy-N-[(1S)-1-[4-(4-methyl-1,3-thiazol-5-yl)phenyl]ethyl]pyrrolidine-2-carboxamide] | 
8 |  | > 1 |  | > 1 | C=CC(=O)N1CCN(c2nc(OCCN3CCC(COc4cc([C@@H](C(=O)N5C[C@H](O)C[C@H]5C(=O)N[C@@H](C)c5ccc(-c6ccnn6C)cc5)C(C)C)on4)CC3)nc3c(F)c(-c4cc(O)cc5ccccc45)c(Cl)cc23)C[C@@H]1CC#N [Compound 159, (2S,4R)-1-[(2S)-2-[3-({1-[2-({6-chloro-4-[(3S)-3-(cyanomethyl)-4-(prop-2-enoyl)piperazin-1-yl]-8-fluoro-7-(3-hydroxynaphthalen-1-yl)quinazolin-2-yl}oxy)ethyl]piperidin-4-yl}methoxy)-1,2-oxazol-5-yl]-3-methylbutanoyl]-4-hydroxy-N-[(1S)-1-[4-(1-methyl-1H-pyrazol-5-yl)phenyl]ethyl]pyrrolidine-2-carboxamide] | 
9 |  | 0.1 to 1 |  | 0.1 to 1 | C=CC(=O)N1CCN(c2nc(OCCN3CCC(COc4cc([C@H](C(=O)N5C[C@H](O)C[C@H]5C(=O)N[C@@H](C)c5ccc(-c6scnc6C)cc5)C(C)C)on4)CC3)nc3c(F)c(-c4cc(O)cc5ccccc45)c(Cl)cc23)C[C@@H]1CC#N (atropisomer, axis not shown) [Compound 104, (2S,4R)-1-[(2R)-2-[3-({1-[2-({6-chloro-4-[(3S)-3-(cyanomethyl)-4-(prop-2-enoyl)piperazin-1-yl]-8-fluoro-7-(3-hydroxynaphthalen-1-yl)quinazolin-2-yl}oxy)ethyl]piperidin-4-yl}methoxy)-1,2-oxazol-5-yl]-3-methylbutanoyl]-4-hydroxy-N-[(1S)-1-[4-(4-methyl-1,3-thiazol-5-yl)phenyl]ethyl]pyrrolidine-2-carboxamide] | KRas^G12C-HiBiT (SW1573; 0.5% DMSO) Dmax** ([1]; SW1573 HiBit-KRas^G12C, 0.5% DMSO): C (C ≤ 35); KRas^G12C-HiBiT (MiaPaCa; 0.5% DMSO) DMax ([2]; MiaPaCa-2 HiBit-KRas^G12C cells, 0.5% DMSO, maximum degradation): C (C ≤ 35)
